Entries after “also recorded” stand apart in the source; their conditions may differ.
Test system: panel of up to 42 human chemokines
Assay: Phage-display next generation sequencing screen of overlapping hexadecapeptide libraries, chemokines displayed on streptavidin beads;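 note: chemokine listed when log2 fold enrichment exceeds 5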
Type: binding
Method in brief: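 Phage-display libraries of 55662 overlapping hexadecapeptides from tick and viral chemokine-binding proteins, human chemokines and chemokine receptors screened against up to 42 human chemokines, with hits found by next-generation sequencing. Peptides mapped to parent-protein position with log2 fold enrichment; regions of interest where cumulative residue log2 E exceeds the 95% upper CI of the protein median.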

[1] = log2E greater than 5, chemokines named by first part of UniProt entry name, C5a (control) binders excluded
[2] = log2E greater than 5, chemokines named by first part of UniProt Entry Name
[3] = log2E greater than 5, chemokines named by first part of UniProt Entry Name, peptides binding complement C5a (control) excluded

Substance | Chemokines Bound [1] | Chemokines Bound [2] | further results
CR21238: chemokine binding peptide of Table 5A used in FIG. 5 combinations (SMILESLFSALVTLIT) | CCL2, CXL11, and IL8 |  | 
CK4643 (RITNIQCPKEAVIFKT) | CCL1, CCL19,; also recorded: CCL20 |  | 
CR3107 (DFAAILLYIDDFSAYF) |  | CCL18, X3CL1,; also recorded: CXL13 | 
CR13458 (LLSVLFTLYVSTLDFS) | CCL18, CCL2, and CCL20, CXL10, and CXL11, SDF1, and CXL13, CXL14, and IL8 |  | 
CR23587 (TRLGVWLMAIVGTFLN) |  | CCL18, CCL20,; also recorded: CCL22 | 
CR26399 (VYTVLLSWKVLLTLVW) |  | CCL1, CCL17, and CCL18, CCL19, and CCL20, CCL22, and CCL25, CCL28, and X3CL1, CXL10, and CXL11, SDF1, and CXL13, CXL14, and IL8 | 
CR22748 (TFKILISIVWGVMPVV) | CCL17, CCL18,; also recorded: CCL19, CCL20,; also recorded: CCL22, CCL28,; also recorded: X3CL1, CXL10,; also recorded: CXL11, SDF1,; also recorded: CXL14, IL8 |  | 
CR5416 (FLAFLRSGYDMWLMLV) |  | CCL1, CCL11, and CCL17, CCL18, and CCL2, CCL20, and CXL11, CXL13, and IL8 | 
CR26309 (VWLMSIVGTFLNMLVI) |  | CCL18, CXL10,; also recorded: CXL11, CXL13,; also recorded: CXL14 | 
CR24702 (VFYSLLFVFSLLGNSL) |  | CCL17, CCL18, and CCL19, CCL20, and CCL22, CCL25, and CCL5, X3CL1, and CXL11, CXL14, and IL8 | 
CR4845 (FDFMILNLSFCDLFIC) |  | X3CL1, CXL13, and IL8 | 
VP11559 (YLYILFLSCIIINGRD) |  |  | Chemokines Bound [3]: CXL10, CXL11,; also recorded: CXL13, IL8
EEEDDYTAYAPLTCYF [HD7] |  |  | Chemokines Bound [3]: CCL1, CCL11, and CCL15, CCL17, and CCL18, CCL20, and CCL22, CCL3, and CCL4, CCL5, and CCL8
CR14585 (LTLKVILGFFLPFVVM) | CCL17, CCL18,; also recorded: CCL19, CCL20,; also recorded: CXL14 |  | 
CR22736 (TFGVVTSVITWLVAVF) | CCL1, CCL11, and CCL17, CCL18, and CCL2, CCL25, and CCL28, CCL8, and X3CL1, CXL10, and CXL11, SDF1, and CXL13, CXL14, and IL8 |  | 
CR15930 (MVIWVLAFFLSSPSLV) | CCL28, CXL10,; also recorded: CXL14 |  | 
CR6097 (FSIFWWIFAVIIAIPH) |  |  | Chemokines Bound [3]: CXL10, SDF1,; also recorded: IL8, CCL1,; also recorded: CCL15, CCL22,; also recorded: CCL5, X3CL1,; also recorded: CXL11, CXL13
CK2307 (IVRNFHYLLIKDGSRV) | CCL19, CCL20,; also recorded: CCL22 |  | 
CR5738 (FLWGIFPTVIFSYFYV) |  |  | Chemokines Bound [3]: CCL18, CCL22, and CCL8, X3CL1, and CXL10, CXL11, and IL8
CR2439 (CALVTLITSLFGSIFK) |  | CCL17, CCL18, and CCL19, CCL20, and CXL10, SDF1, and CXL13, CXL14, and IL8 | 
CR25407 (VLYFIADEVYTVLLSW) |  | CCL15, CCL17, and CCL18, CCL19, and CCL20, CCL25, and X3CL1, CXL10, and CXL11, CXL13, and IL8 | 
CR6068 (FSFFYVIFSKALHDVT) |  |  | Chemokines Bound [3]: CCL1, CCL18, and CCL22, CCL28, and SDF1
CR14752 (LVFIFGFVGNMLVVLI) | CCL17, CCL25,; also recorded: CXL10 |  | 

Substance | Chemokines Bound [1] | Chemokines Bound [2] | further results
CR27448 (YLLNLAISDLLFVFSL) |  | CCL1, CCL2,; also recorded: CXL11, IL8 | 
CR24556 (VFGTVFLSIFYSVIFA) |  | CCL1, CCL17,; also recorded: CCL18, CCL19,; also recorded: CCL2, CCL20,; also recorded: CCL22, CCL25,; also recorded: CCL28, X3CL1,; also recorded: CXL10, CXL11,; also recorded: SDF1, CXL13,; also recorded: CXL14, IL8 | 
CR11776 (LAVKIVFSFIWGVLPT) | CCL17, CCL18,; also recorded: CCL19, CCL20,; also recorded: CCL22, CCL25,; also recorded: CCL8, X3CL1,; also recorded: CXL10, CXL11,; also recorded: SDF1, CXL13,; also recorded: CXL14, IL8 |  | 
EB3974 (VGLCLSTEYTDFSEYP) |  |  | Chemokines Bound [3]: CXL10, SDF1,; also recorded: CXL14
CR1475 (ANVTFTGLIAAFSWFM) | CCL2, CCL22,; also recorded: CXL11, CXL13 |  | 
CR1005 (ALAFIYVLMFLSNAIG) | CCL19, CCL2,; also recorded: CCL20, CCL28,; also recorded: CXL14 |  | 
CR26232 (VVTSVITWVVAVFASL) |  | CCL17, CCL18,; also recorded: CCL28, CCL8,; also recorded: X3CL1, CXL10,; also recorded: SDF1, CXL14 | 
CR6212 (FSTFSGMLVYILLLPV) |  |  | Chemokines Bound [3]: CXL11, CXL13, and IL8
CR5172 (FGVVTSVITWVVAVFA) |  | CCL1, CCL18, and CXL10, SDF1, and IL8 | 
CK1408 (FSRCCFSFAEQEIPLR) | CCL1, CCL2,; also recorded: CCL8, CXL14 |  | 
CR9218 (IITSVLAWVTAILATL) |  |  | Chemokines Bound [3]: CCL17, CCL18, and CXL11, CXL14, and IL8
CR8496 (HWGWVLGDFLCKLLNM) |  |  | Chemokines Bound [3]: CCL11, CCL17, and CCL18, CCL19, and CCL20, CCL22, and CCL25, CCL28, and X3CL1, CXL10, and CXL11, SDF1, and CXL13, CXL14, and IL8
CR1325 (ALYSLLFLLGLLGNGA) | CCL17, CCL19,; also recorded: CCL2, CCL20,; also recorded: CCL22, CXL11,; also recorded: CXL14 |  | 
CR12569 (LGVWLMAIVGTFLNVL) | CCL2, X3CL1,; also recorded: CXL10, CXL11 |  | 
CK1301 (FIADYFETSSQCSKPS) | CCL20, CXL10,; also recorded: CXL14, IL8 |  | 
CR15801 (MSFFSGMLLLLCISID) | CCL18, CCL20, and SDF1 |  | 
VP10866 (VNASIAWFFDFGACRM) |  |  | Chemokines Bound [3]: X3CL1, CXL10,; also recorded: CXL11
CR1802 (ASMILESLFAALVTLI) | CCL17, CCL18,; also recorded: CCL2, CCL20,; also recorded: CCL22, CCL25,; also recorded: CCL28, CXL10 |  | 
CR26513 (WGAAPVIMMTWFYAFF) |  | CCL11, CCL17, and CCL18, CCL19, and CCL20, CCL22, and CCL25, CCL28, and X3CL1, CXL10, and CXL11, CXL13, and IL8 | 
CR14086 (LQTVITFALYVGQFLA) | CCL15, CCL2,; also recorded: CCL28, X3CL1 |  | 
CR5245 (FIGIKIVYCFLWGIFP) |  | CCL1, CCL15,; also recorded: CCL17, CCL18,; also recorded: CCL19, CCL20,; also recorded: CCL22, CCL25,; also recorded: CCL28, X3CL1,; also recorded: CXL10, CXL11,; also recorded: SDF1, CXL13,; also recorded: CXL14, IL8 | 
CR2340 (AYDLFIGIKIVYCFLW) |  | CCL15, CCL17, and CCL18, CCL19, and CCL20, CCL22, and CCL25, CCL28, and X3CL1, CXL10, and CXL11, SDF1, and CXL13, CXL14, and IL8 | 

— US20260234188A1, “CHEMOKINE-BINDING PEPTIDES” (Oxford University Innovation Limited, priority 2022, published 2026)
